Laboratory results published in ChEMBL document CHEMBL1154520, “Synthesis and antitumor activity of novel 20s-camptothecin analogues” (Bioorg Med Chem Lett, 2009).

Tests used:
[1] = test system: MCF7; assay: Cytotoxicity against human MCF7 cells by MTT assay; format: functional, cell-based
[2] = test system: HCT-8; assay: Cytotoxicity against human HCT8 cells by MTT assay; format: functional, cell-based
[3] = test system: PC-3; assay: Cytotoxicity against human PC3 cells by MTT assay; format: functional, cell-based
[4] = Chemical stability assessed as half life in PBS at pH 7.4 by HPLC; format: physicochemical
[5] = test system: HCT-8; assay: Antitumor activity against human HCT8 xenografted in BALB/c nu/nu mouse assessed as change in body weight at 10 mg/kg, ip q3d for 3 days; format: functional; conditions: route intraperitoneal
[6] = test system: Mus musculus; assay: Toxicity to BALB/c nu/nu mouse assessed as mortality at 10 mg/kg, ip q3d for 3 days; format: organism-based; design: dose 10 mg/kg, route intraperitoneal; conditions: in vivo, 72 h
[7] = test system: HCT-8; assay: Antitumor activity against human HCT8 xenografted in BALB/c nu/nu mouse assessed as tumor inhibition rate at 20 mg/kg, ip q3d for 3 days; format: functional; conditions: HCT-8, ip, 72 h, route intraperitoneal
[8] = test system: HCT-8; assay: Antitumor activity against human HCT8 xenografted in BALB/c nu/nu mouse assessed as tumor inhibition rate at 10 mg/kg, ip q3d for 3 days; format: functional; conditions: HCT-8, ip, 72 h, route intraperitoneal
[9] = test system: HCT-8; assay: Antitumor activity against human HCT8 xenografted in BALB/c nu/nu mouse assessed as change in body weight at 20 mg/kg, ip q3d for 3 days; format: functional; conditions: route intraperitoneal
[10] = test system: Mus musculus; assay: Toxicity to BALB/c nu/nu mouse assessed as mortality at 20 mg/kg, ip q3d for 3 days; format: organism-based; design: dose 20 mg/kg, route intraperitoneal; conditions: in vivo, 72 h
[11] = test system: HCT-8; assay: Antitumor activity against human HCT8 xenografted in BALB/c nu/nu mouse assessed as change in body weight at 5 mg/kg, ip q3d for 3 days; format: functional; conditions: route intraperitoneal
[12] = test system: HCT-8; assay: Antitumor activity against human HCT8 xenografted in BALB/c nu/nu mouse assessed as tumor inhibition rate at 5 mg/kg, ip q3d for 3 days; format: functional; conditions: HCT-8, ip, 72 h, route intraperitoneal
[13] = test system: Mus musculus; assay: Toxicity to BALB/c nu/nu mouse assessed as mortality at 5 mg/kg, ip q3d for 3 days; format: organism-based; design: dose 5 mg/kg, route intraperitoneal; conditions: in vivo, 72 h

Row | half-life [4] [h] | Compound | IC50 [1] [nM] | IC50 [2] [nM] | IC50 [3] [nM] | Activity [5] [%] | Activity [6] | inhibition in vivo at 20 mg/kg [7] [%] | inhibition in vivo at 10 mg/kg [8] [%] | Activity [9] [%] | Activity [10] | Activity [11] [%] | inhibition in vivo at 5 mg/kg [12] [%] | Activity [13]
1 |  | CC[C@@]1(OC(=O)C[n+]2cccc(CO)c2)C(=O)OCc2c1cc1n(c2=O)Cc2cc3ccccc3nc2-1 | 2570 | 2090 | 800 |  |  |  |  |  |  |  |  | 
2 | 13 | CC[C@@]1(OC(=O)C(C)n2ccnn2)C(=O)OCc2c1cc1n(c2=O)Cc2cc3ccccc3nc2-1 (stereo partly drawn) | 160 | 480 | 590 |  |  |  |  |  |  |  |  | 
3 | 45 | CC[C@@]1(OC(=O)Cn2cncn2)C(=O)OCc2c1cc1n(c2=O)Cc2cc3ccccc3nc2-1 | 690 | 740 | 150 |  |  |  |  |  |  |  |  | 
4 |  | CC[C@@]1(OC(=O)C[n+]2cccc(C(C)=O)c2)C(=O)OCc2c1cc1n(c2=O)Cc2cc3ccccc3nc2-1 | 3450 | 2580 | 540 |  |  |  |  |  |  |  |  | 
5 | 14 | CC[C@@]1(OC(=O)C(C)n2cncn2)C(=O)OCc2c1cc1n(c2=O)Cc2cc3ccccc3nc2-1 (stereo partly drawn) | 650 | 510 | 440 |  |  |  |  |  |  |  |  | 
6 |  | CC[C@@]1(OC(=O)C[n+]2cccc(C(=O)O)c2)C(=O)OCc2c1cc1n(c2=O)Cc2cc3ccccc3nc2-1 | 2120 | 760 | 550 |  |  |  |  |  |  |  |  | 
7 |  | CC[C@@]1(OC(=O)C[n+]2cccc(C)c2)C(=O)OCc2c1cc1n(c2=O)Cc2cc3ccccc3nc2-1 | 3760 | 3780 | 600 |  |  |  |  |  |  |  |  | 
8 |  | CC[C@@]1(OC(=O)C(C)O)C(=O)OCc2c1cc1n(c2=O)Cc2cc3ccccc3nc2-1 (stereo partly drawn) | 560 | 820 | 500 |  |  |  |  |  |  |  |  | 
9 | > 48 | CC[C@@]1(OC(=O)CO)C(=O)OCc2c1cc1n(c2=O)Cc2cc3ccccc3nc2-1 | 10400 | 3000 | 30 |  |  |  |  |  |  |  |  | 
10 |  | CC[C@@]1(OC(=O)C[n+]2cccc(O)c2)C(=O)OCc2c1cc1n(c2=O)Cc2cc3ccccc3nc2-1 | 3800 | 2430 | 110 |  |  |  |  |  |  |  |  | 
11 |  | CC[C@@]1(O)C(=O)OCc2c1cc1n(c2=O)Cc2cc3c(CN(C)C)c(O)ccc3nc2-1 [TOPOTECAN] | 5550 | 3660 | 3990 | -29 |  |  | 92.5 |  |  | -3 | 62 | Non-toxic
12 | 18 | CC[C@@]1(OC(=O)C(C)n2ccnc2)C(=O)OCc2c1cc1n(c2=O)Cc2cc3ccccc3nc2-1 (stereo partly drawn) | 110 | 590 | 380 |  |  |  |  |  |  |  |  | 
13 | 24 | CC[C@@]1(OC(=O)Cn2ccnn2)C(=O)OCc2c1cc1n(c2=O)Cc2cc3ccccc3nc2-1 | 1200 | 380 | 160 |  |  |  |  |  |  |  |  | 
14 | 9 | CC[C@@]1(OC(=O)C(C)Oc2cc(C(F)(F)F)ncn2)C(=O)OCc2c1cc1n(c2=O)Cc2cc3ccccc3nc2-1 (stereo partly drawn) | 270 | 1110 | 320 |  |  |  |  |  |  |  |  | 

Row | Compound | half-life [4] [h] | IC50 [1] [nM] | IC50 [2] [nM] | IC50 [3] [nM] | Activity [5] [%] | Activity [6] | inhibition in vivo at 20 mg/kg [7] [%] | inhibition in vivo at 10 mg/kg [8] [%] | Activity [9] [%] | Activity [10] | Activity [11] [%] | inhibition in vivo at 5 mg/kg [12] [%] | Activity [13]
15 | CC[C@@]1(OC(=O)C(C)n2cccn2)C(=O)OCc2c1cc1n(c2=O)Cc2cc3ccccc3nc2-1 (stereo partly drawn) | > 48 | 810 | 230 | 130 | -2 | Non-toxic | 92.9 | 77.1 | -5 |  |  |  | 
16 | CC[C@@]1(OC(=O)Cn2ccnc2)C(=O)OCc2c1cc1n(c2=O)Cc2cc3ccccc3nc2-1 | 24 | 900 | 600 | 210 | 6 | Non-toxic | 46.2 | 27.8 | 1 | Non-toxic |  |  | 
17 | CC[C@@]1(OC(=O)COc2cc(C(F)(F)F)ncn2)C(=O)OCc2c1cc1n(c2=O)Cc2cc3ccccc3nc2-1 | 14 | 1790 | 1510 | 1340 | 36 | Non-toxic | 49.3 | 25.4 | 12 | Non-toxic |  |  | 
18 | CC[C@@]1(OC(=O)Cn2cccn2)C(=O)OCc2c1cc1n(c2=O)Cc2cc3ccccc3nc2-1 | > 48 | 120 | 610 | 160 | 7 | Non-toxic | 75.6 | 35.3 | 8 | Non-toxic |  |  | 
